Values of other authors in patent publication US20030039681A1, “Rapid growth dairy heifers having reduced mammary fat content” (priority 2001, published 2003).

Assays:
adipose tissue = conditions: growing pigs, CLA-supplement fed
lactating dairy cattle = conditions: abomasal infusion

For conjugated linoleic acid [CLA], the carcass lipid content (adipose tissue) is listed as “lower”, the “lipogenesis in adipose tissue” value (adipose tissue) is listed as “decreases” and the milk fat content (lactating dairy cattle) is listed as “decreases”. The proliferation of preadipocytes (preadipocytes) was “inhibits”.
